Test results published in the kinase profiling compilation of Christmann-Franck et al. (2016).

Columns and labels:
Assay in all cases: KINOMEscan competition binding
Details in all cases: compound 10.0 µM
RIPK1 (human) = RIPK1 (human) (UniProt Q13546)
PAK7 (human) = PAK7 (human) (UniProt Q9P286)
OXSR1 (human) = OXSR1 (human) (UniProt O95747)
PKN2 (human) = PKN2 (human) (UniProt Q16513)
ERN1 (human) = ERN1 (human) (UniProt O75460)
EPHA4 (human) = EPHA4 (human) (UniProt P54764)
CAMK4 (human) = CAMK4 (human) (UniProt Q16566)
CAMKK1 (human) = CAMKK1 (human) (UniProt Q8N5S9)
PDGFRB (human) = PDGFRB (human) (UniProt P09619)
TNK2 (human) = TNK2 (human) (UniProt Q07912)
FLT1 (human) = FLT1 (human) (UniProt P17948)
MAP4K5 (human) = MAP4K5 (human) (UniProt Q9Y4K4)
IRAK1 (human) = IRAK1 (human) (UniProt P51617)
NEK1 (human) = NEK1 (human) (UniProt Q96PY6)
MAP3K12 (human) = MAP3K12 (human) (UniProt Q12852)
AURKC (human) = AURKC (human) (UniProt Q9UQB9)
MKNK2 (human) = MKNK2 (human) (UniProt Q9HBH9)
EPHA7 (human) = EPHA7 (human) (UniProt Q15375)
MAPK8 (human) = MAPK8 (human) (UniProt P45983)
RPS6KA6 KD2 (human) = RPS6KA6 KD2 (human) (UniProt Q9UK32)
LCK (human) = LCK (human) (UniProt P06239)
[1] = tested on: ABL1 (human), P00519 [Y253F]
MAP3K13 (human) = MAP3K13 (human) (UniProt O43283)
IKBKE (human) = IKBKE (human) (UniProt Q14164)
ACVRL1 (human) = ACVRL1 (human) (UniProt P37023)
SRMS (human) = SRMS (human) (UniProt Q9H3Y6)
CSNK1G3 (human) = CSNK1G3 (human) (UniProt Q9Y6M4)
STK32C (human) = STK32C (human) (UniProt Q86UX6)
AKT1 (human) = AKT1 (human) (UniProt P31749)
FES (human) = FES (human) (UniProt P07332)
CDK11B (human) = CDK11B (human) (UniProt P21127)
MAP2K4 (human) = MAP2K4 (human) (UniProt P45985)
ACVR1 (human) = ACVR1 (human) (UniProt Q04771)
MATK (human) = MATK (human) (UniProt P42679)
SRPK2 (human) = SRPK2 (human) (UniProt P78362)
EPHA3 (human) = EPHA3 (human) (UniProt P29320)
Chain of EPHA3 (human) (P29320 whole entry, looked up): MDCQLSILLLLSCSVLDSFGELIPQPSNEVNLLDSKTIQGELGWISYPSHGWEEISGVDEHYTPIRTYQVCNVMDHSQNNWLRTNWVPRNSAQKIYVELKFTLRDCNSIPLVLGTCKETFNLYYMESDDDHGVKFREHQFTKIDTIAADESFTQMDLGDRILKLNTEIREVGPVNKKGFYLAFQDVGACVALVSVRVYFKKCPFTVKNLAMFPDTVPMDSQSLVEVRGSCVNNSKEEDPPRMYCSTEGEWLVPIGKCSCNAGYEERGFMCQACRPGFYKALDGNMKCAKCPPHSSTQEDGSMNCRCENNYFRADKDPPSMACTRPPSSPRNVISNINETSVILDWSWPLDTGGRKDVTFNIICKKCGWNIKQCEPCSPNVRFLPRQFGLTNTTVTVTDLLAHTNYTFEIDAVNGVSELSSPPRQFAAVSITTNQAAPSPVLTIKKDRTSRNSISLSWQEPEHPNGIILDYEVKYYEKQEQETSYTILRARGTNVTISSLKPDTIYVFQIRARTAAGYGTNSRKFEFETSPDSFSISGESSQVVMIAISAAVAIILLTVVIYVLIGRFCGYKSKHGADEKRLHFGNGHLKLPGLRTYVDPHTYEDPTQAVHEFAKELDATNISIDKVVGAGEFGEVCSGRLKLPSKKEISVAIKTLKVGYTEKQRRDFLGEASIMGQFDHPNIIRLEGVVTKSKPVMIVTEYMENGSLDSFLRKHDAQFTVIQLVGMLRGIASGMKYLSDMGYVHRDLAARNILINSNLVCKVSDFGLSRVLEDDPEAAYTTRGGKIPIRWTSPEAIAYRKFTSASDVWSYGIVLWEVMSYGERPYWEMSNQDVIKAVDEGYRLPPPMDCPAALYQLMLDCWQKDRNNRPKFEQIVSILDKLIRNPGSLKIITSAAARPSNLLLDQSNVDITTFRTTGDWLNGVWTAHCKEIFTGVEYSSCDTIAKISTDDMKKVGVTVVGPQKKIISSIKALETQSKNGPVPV

Chain of OXSR1 (human) (O95747 whole entry, looked up): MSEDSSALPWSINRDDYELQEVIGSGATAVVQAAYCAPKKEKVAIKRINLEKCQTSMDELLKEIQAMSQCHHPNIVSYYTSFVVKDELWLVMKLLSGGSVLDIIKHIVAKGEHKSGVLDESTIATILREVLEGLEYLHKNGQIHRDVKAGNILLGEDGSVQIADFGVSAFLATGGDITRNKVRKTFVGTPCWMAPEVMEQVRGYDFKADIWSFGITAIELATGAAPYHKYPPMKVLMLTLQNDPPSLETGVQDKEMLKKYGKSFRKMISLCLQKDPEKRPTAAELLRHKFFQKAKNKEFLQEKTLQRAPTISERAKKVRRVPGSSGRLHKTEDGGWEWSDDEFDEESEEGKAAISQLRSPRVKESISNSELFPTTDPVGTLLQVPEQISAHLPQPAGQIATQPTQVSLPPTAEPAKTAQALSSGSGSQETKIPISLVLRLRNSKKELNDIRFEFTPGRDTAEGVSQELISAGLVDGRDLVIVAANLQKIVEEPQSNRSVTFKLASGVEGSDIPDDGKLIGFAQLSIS
Chain of CAMKK1 (human) (Q8N5S9 whole entry, looked up): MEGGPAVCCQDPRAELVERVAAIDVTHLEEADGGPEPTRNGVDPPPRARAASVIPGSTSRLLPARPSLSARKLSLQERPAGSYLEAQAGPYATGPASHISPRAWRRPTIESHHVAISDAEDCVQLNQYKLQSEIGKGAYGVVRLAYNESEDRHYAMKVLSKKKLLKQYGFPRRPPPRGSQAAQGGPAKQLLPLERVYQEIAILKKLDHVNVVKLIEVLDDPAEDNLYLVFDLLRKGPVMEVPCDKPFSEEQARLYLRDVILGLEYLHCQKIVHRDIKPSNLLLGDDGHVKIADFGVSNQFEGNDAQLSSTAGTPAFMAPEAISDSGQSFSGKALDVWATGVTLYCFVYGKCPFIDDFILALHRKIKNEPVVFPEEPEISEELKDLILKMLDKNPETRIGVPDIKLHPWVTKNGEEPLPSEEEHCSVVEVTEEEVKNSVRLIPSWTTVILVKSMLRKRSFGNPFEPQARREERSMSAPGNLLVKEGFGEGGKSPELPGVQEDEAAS
Chain of MAP2K4 (human) (P45985 whole entry, looked up): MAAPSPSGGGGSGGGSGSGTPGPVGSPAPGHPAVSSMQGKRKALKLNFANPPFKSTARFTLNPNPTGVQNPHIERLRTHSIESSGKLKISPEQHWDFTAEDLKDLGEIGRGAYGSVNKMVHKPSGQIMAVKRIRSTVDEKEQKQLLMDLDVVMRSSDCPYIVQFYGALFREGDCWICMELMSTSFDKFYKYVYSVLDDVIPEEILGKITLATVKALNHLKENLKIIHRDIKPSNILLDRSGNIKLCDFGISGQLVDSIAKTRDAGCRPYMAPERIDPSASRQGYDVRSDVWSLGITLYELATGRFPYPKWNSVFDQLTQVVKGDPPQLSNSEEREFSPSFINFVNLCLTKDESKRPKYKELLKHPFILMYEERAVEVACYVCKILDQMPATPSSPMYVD
Chain of RPS6KA6 KD2 (human) (Q9UK32 whole entry, looked up): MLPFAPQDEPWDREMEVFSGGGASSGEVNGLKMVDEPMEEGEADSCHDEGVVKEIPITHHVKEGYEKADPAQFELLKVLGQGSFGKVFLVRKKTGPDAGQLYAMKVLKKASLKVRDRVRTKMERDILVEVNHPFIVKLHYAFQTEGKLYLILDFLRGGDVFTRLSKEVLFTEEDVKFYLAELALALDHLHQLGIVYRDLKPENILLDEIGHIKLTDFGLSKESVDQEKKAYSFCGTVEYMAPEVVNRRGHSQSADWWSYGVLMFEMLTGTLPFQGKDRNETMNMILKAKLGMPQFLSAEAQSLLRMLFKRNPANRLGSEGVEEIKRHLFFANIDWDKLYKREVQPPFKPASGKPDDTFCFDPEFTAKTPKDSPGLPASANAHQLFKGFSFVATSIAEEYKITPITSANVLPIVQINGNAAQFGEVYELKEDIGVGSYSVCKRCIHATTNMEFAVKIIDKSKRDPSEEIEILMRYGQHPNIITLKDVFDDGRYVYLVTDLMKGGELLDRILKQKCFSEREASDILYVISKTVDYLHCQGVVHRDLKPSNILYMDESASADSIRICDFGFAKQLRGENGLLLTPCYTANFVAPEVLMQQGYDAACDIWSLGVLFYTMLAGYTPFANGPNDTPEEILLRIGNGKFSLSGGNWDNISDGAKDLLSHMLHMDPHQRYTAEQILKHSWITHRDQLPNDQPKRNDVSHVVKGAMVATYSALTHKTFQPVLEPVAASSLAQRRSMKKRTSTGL
Chain of SRMS (human) (Q9H3Y6 whole entry, looked up): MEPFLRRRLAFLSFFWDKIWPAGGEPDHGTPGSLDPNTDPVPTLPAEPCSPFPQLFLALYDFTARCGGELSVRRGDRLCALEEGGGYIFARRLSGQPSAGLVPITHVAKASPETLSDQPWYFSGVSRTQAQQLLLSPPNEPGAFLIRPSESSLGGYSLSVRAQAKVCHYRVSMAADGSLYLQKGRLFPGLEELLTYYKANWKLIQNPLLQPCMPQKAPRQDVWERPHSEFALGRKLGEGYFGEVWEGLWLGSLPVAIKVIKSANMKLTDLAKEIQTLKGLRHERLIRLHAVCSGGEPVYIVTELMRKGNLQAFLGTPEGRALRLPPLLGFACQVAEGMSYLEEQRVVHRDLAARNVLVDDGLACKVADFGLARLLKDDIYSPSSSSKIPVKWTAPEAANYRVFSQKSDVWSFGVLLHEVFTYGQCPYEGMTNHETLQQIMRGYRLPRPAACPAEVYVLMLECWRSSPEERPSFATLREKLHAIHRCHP
Chain of FES (human) (P07332 whole entry, looked up): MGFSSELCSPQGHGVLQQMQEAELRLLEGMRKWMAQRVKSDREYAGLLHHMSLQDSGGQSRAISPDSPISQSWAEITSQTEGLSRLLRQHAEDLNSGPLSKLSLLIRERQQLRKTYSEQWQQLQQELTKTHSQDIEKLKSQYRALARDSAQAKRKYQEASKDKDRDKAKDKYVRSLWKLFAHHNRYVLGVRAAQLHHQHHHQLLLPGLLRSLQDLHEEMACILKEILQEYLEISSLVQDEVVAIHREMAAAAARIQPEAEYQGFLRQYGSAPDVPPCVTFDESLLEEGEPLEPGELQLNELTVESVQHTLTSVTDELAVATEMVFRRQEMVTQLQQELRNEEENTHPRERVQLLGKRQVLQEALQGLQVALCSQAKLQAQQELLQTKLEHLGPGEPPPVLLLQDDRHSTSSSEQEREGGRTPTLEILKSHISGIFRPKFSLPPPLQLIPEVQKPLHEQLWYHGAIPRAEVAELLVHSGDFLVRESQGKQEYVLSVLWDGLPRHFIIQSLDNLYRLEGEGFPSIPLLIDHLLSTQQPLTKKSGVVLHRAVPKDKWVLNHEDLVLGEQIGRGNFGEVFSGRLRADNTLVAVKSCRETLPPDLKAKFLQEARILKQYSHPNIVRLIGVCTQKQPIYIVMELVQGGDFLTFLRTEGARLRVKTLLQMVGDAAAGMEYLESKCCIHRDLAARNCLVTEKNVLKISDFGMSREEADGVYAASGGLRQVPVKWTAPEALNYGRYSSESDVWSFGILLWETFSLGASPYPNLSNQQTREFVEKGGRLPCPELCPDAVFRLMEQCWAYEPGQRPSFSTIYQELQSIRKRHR
Chain of MATK (human) (P42679 whole entry, looked up): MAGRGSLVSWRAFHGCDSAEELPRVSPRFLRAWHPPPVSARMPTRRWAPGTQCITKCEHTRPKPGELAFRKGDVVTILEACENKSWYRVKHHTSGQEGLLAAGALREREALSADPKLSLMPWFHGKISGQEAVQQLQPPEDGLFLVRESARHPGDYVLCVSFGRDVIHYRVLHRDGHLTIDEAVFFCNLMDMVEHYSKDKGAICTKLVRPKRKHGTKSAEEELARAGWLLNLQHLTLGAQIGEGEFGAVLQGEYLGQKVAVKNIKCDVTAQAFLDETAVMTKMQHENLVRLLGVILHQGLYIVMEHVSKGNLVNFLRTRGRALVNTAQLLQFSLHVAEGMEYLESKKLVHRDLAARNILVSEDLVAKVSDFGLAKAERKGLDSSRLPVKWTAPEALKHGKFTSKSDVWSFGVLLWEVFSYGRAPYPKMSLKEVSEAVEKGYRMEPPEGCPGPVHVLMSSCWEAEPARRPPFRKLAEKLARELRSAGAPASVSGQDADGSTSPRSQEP

SMILES | kinase still bound, per cent of control (RIPK1 (human)) | kinase still bound, per cent of control (PAK7 (human)) | kinase still bound, per cent of control (OXSR1 (human)) | kinase still bound, per cent of control (PKN2 (human)) | kinase still bound, per cent of control (ERN1 (human)) | kinase still bound, per cent of control (EPHA4 (human)) | kinase still bound, per cent of control (CAMK4 (human)) | kinase still bound, per cent of control (CAMKK1 (human)) | kinase still bound, per cent of control (PDGFRB (human)) | kinase still bound, per cent of control (TNK2 (human)) | kinase still bound, per cent of control (FLT1 (human)) | kinase still bound, per cent of control (MAP4K5 (human)) | kinase still bound, per cent of control (IRAK1 (human)) | kinase still bound, per cent of control (NEK1 (human)) | kinase still bound, per cent of control (MAP3K12 (human)) | kinase still bound, per cent of control (AURKC (human)) | kinase still bound, per cent of control (MKNK2 (human)) | kinase still bound, per cent of control (EPHA7 (human)) | kinase still bound, per cent of control (MAPK8 (human)) | kinase still bound, per cent of control (RPS6KA6 KD2 (human)) | other results
COc1cc(N2CCN(C)CC2)ccc1Nc1ncc2c(n1)N(C)c1ccccc1C(=O)N2C | 100% | 100% | 100% | 100% | 100% | 100% | 100% | 100% | 100% | 3.2% | 100% | 100% | 100% | 100% | 100% | 100% | 0% | 100% | 100% | 4.9% | kinase still bound, per cent of control (LCK (human)): 100%; kinase still bound, per cent of control [1]: 100%; kinase still bound, per cent of control (MAP3K13 (human)): 100%; kinase still bound, per cent of control (IKBKE (human)): 100%; kinase still bound, per cent of control (ACVRL1 (human)): 100%; kinase still bound, per cent of control (SRMS (human)): 100%; kinase still bound, per cent of control (CSNK1G3 (human)): 100%; kinase still bound, per cent of control (STK32C (human)): 100%; kinase still bound, per cent of control (AKT1 (human)): 100%; kinase still bound, per cent of control (FES (human)): 100%; kinase still bound, per cent of control (CDK11B (human)): 100%; kinase still bound, per cent of control (MAP2K4 (human)): 100%; kinase still bound, per cent of control (ACVR1 (human)): 100%; kinase still bound, per cent of control (MATK (human)): 100%; kinase still bound, per cent of control (SRPK2 (human)): 100%; kinase still bound, per cent of control (EPHA3 (human)): 100%
CCN(CC)CCCCNc1ncc2c(n1)N(C)C(=O)N(c1c(Cl)c(OC)cc(OC)c1Cl)C2 | 100% | 100% | 100% | 100% | 100% | 100% | 100% | 100% | 21% | 100% | 5.6% | 23% | 100% | 100% | 100% | 100% | 100% | 100% | 100% | 100% | kinase still bound, per cent of control (LCK (human)): 3%; kinase still bound, per cent of control [1]: 100%; kinase still bound, per cent of control (MAP3K13 (human)): 100%; kinase still bound, per cent of control (IKBKE (human)): 100%; kinase still bound, per cent of control (ACVRL1 (human)): 100%; kinase still bound, per cent of control (SRMS (human)): 100%; kinase still bound, per cent of control (CSNK1G3 (human)): 100%; kinase still bound, per cent of control (STK32C (human)): 100%; kinase still bound, per cent of control (AKT1 (human)): 100%; kinase still bound, per cent of control (FES (human)): 100%; kinase still bound, per cent of control (CDK11B (human)): 100%; kinase still bound, per cent of control (MAP2K4 (human)): 100%; kinase still bound, per cent of control (ACVR1 (human)): 100%; kinase still bound, per cent of control (MATK (human)): 100%; kinase still bound, per cent of control (SRPK2 (human)): 100%; kinase still bound, per cent of control (EPHA3 (human)): 100%
CS(=O)(=O)N1CCN(Cc2cc3nc(-c4cccc5[nH]ncc45)nc(N4CCOCC4)c3s2)CC1 | 100% | 100% | 100% | 100% | 100% | 100% | 100% | 100% | 100% | 100% | 100% | 100% | 100% | 100% | 100% | 100% | 100% | 100% | 100% | 100% | kinase still bound, per cent of control (LCK (human)): 100%; kinase still bound, per cent of control [1]: 100%; kinase still bound, per cent of control (MAP3K13 (human)): 100%; kinase still bound, per cent of control (IKBKE (human)): 100%; kinase still bound, per cent of control (ACVRL1 (human)): 100%; kinase still bound, per cent of control (SRMS (human)): 100%; kinase still bound, per cent of control (CSNK1G3 (human)): 100%; kinase still bound, per cent of control (STK32C (human)): 100%; kinase still bound, per cent of control (AKT1 (human)): 100%; kinase still bound, per cent of control (FES (human)): 100%; kinase still bound, per cent of control (CDK11B (human)): 100%; kinase still bound, per cent of control (MAP2K4 (human)): 100%; kinase still bound, per cent of control (ACVR1 (human)): 100%; kinase still bound, per cent of control (MATK (human)): 100%; kinase still bound, per cent of control (SRPK2 (human)): 100%; kinase still bound, per cent of control (EPHA3 (human)): 100%
